Measurements as given in patent US20120101093A1, “SUBSTITUTED IMIDAZO[1,2-A]PYRIDINE DERIVATIVES, PHARMACEUTICAL COMPOSITIONS, AND METHODS OF USE AS BETA-SECRETASE INHIBITORS” (HIGH POINT PHARMACEUTICALS, LLC, priority 2009, published 2012).

What was measured:
BACE-1 enzyme = molecular target: T1, BACE-1 enzyme (Homo sapiens, UniProt P56817); assay: BACE Fluorescence Resonance Energy Transfer (FRET) Assay; format: biochemical; conditions: pH 4-4.5, 30 min pre-incubation, about 1.5 hours reaction
T1 construct: purchased R & D Systems 931AS
Outline: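 BACE-1 enzyme pre-incubated 30 min with compound in 7.5% DMSO in 50 mM sodium acetate pH 4-4.5, 0.01% CHAPS, 0.0125% Triton X-100, 0.006% EDTA. Rhodamine/quencher peptide substrate added; ~1.5 h at room temperature, fluorescence read at 540/585 nm. IC50 or percent inhibition at one concentration.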

[1] = system: Aβ1-40 secreted from HEK293 cells stably expressing wildtype human APP695 protein (HEK-APPwt cells); assay: Aβ Cell Based Assay (Aβ1-40 secretion, ELISA); conditions: 6 hours incubation, reduction of Aβ1-40 secretion
Protocol: Aβ Cell Based Assay Procedure
In the following assay, the proteolytic activity of BACE in cells exposed to varying concentrations of a compound of interest is measured by observing the amount of Aβ1-40 secreted from HEK293 cells (Human Embryonic Kidney epithelial cell line) stably expressing wildtype human APP695 protein (HEK-APPwt cells).
HEK-APPwt cells were grown in high glucose DMEM (Dulbecco's Modified Eagles Medium SIGMA Cat.# D5796) supplemented with 25 mM HEPES (4-(2-hydroxyethyl)-1-piperazineethanesulfonic acid) (pH 7.4) (Invitrogen Cat.# 15630-114), 0.1 mM NEAA (Non-essential Amino Acids) (BioWhittaker Cat. #13-114E), 10% fetal bovine serum (SIGMA Cat. #F4135) and 250 μg/mL hygromycin (Invitrogen Cat. #10687-010) in T-225 flasks at 37° C. with 5% CO2 and humidity control.
Test compounds were initially prepared in DMSO and diluted with DMEM media containing 2% FBS (Fetal bovine serum). Ten standard compound solutions were prepared having a range of concentrations. The standard compound solutions were used to determine the EC50 of the test compound. The range of concentrations chosen may depend on the compound's predicted potency.
To prepare the cells for the assay, a flask containing HEK-APPwt cells were trypsinized briefly (1 mL trypsin), and once the cells detached, 4 mL of 10% FBS-DMEM was added to the flask. The detached cells were centrifuged at 900 rpm for 5 min to form a pellet.
The HEK-APPwt cell pellet was re-suspended with 10 mL DMEM media containing 2% FBS. 80 μL of the cell suspension was added to each well of a 96-well cell culture plate to give 100×10^4cells/ml. 10 μL of a standard compound solution was added to each well of the 96-well cell culture plate followed by 10 μL of Alamar blue solution. The cells were incubated at 37° C. in a 5% CO2 incubator for 6 hours.
At the end of the incubation, the plates were removed from incubator, and the supernatant was collected. A≈1-40 concentration in the medium was measured by using a commercial Aβ1-X ELISA kit (IBL, Japan Cat. #27729). Briefly, the ELISA plates were coated with an anti-human AO (N)(82E1) mouse IgG monoclonal antibody. A horseradish peroxidase conjugated anti-human Aβ11-28 mouse IgG monoclonal antibody was used for detection. The cell culture supernatant was diluted with EIA buffer +protease inhibitors (kit buffer containing protease inhibitors (1 mL PI/30 mL buffer)). A 100 μL aliquot of the diluted supernatant was added to each well of the ELISA plate and incubated for 6 hrs at 4° C. The ELISA plate was washed 8 times with phosphate buffered saline (PBS) containing 0.05% Tween 20.
A 100 μL of detection antibody was then added and incubated for 1 hour at 4° C. The plate was washed 8 times with PBS buffer containing 0.05% Tween 20 followed by addition of 100 μL of the chromogen tetramethylbenzidine (TMB). The plate was incubated in the dark at room temperature for about 30 min and a stop solution (1N H2SO4) was added.
The intensity of the color developed was measured at 450 nm. The optical density at 450 nm (OD450) is proportional to the concentration of human Aβ1-40 secreted by the cell. As a reference, N-[N-(3,5-difluorophenacetyl-L-alanyl)]-S-phenylglycine t-butyl ester (DAPT, a γ-secretase inhibitor) was used to indicate 100% inhibition of BACE activity. Thus, the assay measures the ability of a compound of interest to reduce Aβ1-40 secretion. For select compounds, compound potency is reported in Table 3 as the EC50 by calculating the percent inhibition at all concentration levels and the data were fit with non-linear curve fitting algorithm using GraphPad Prism.

T1 sequence (P56817 46-457 limits assumed): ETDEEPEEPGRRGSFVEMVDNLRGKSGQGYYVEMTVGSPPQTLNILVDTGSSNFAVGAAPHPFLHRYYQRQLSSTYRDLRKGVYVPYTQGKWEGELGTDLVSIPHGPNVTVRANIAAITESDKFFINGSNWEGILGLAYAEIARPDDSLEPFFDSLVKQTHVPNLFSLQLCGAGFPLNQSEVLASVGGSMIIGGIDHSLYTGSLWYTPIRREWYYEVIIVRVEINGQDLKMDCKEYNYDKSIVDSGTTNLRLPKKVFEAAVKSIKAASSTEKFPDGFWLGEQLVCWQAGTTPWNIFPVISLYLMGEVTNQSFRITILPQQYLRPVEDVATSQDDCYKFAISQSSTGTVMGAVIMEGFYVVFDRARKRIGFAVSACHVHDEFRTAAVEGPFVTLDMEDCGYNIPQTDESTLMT

IC50 (BACE-1 enzyme) [µM]	SMILES	EC50 ([1]; Homo sapiens, HEK293, 6 h) [µM]	EC50 [1] [µM]
0.48	Cc1cccc2nc(C(=O)Nc3nc4cc(-c5ccc(Cl)cc5)ccc4[nH]3)cn12 [Example 68, 5-Methyl-imidazo[1,2-a]pyridine-2-carboxylic acid [5-(4-chloro-phenyl)-1H-benzoimidazol-2-yl]-amide]	1.61	–
0.46	Cc1cccn2cc(C(=O)Nc3nc4cc(-c5ccc(Cl)cc5)ccc4[nH]3)nc12 [Example 69, 8-Methyl-imidazo[1,2-a]pyridine-2-carboxylic acid [5-(4-chloro-phenyl)-1H-benzoimidazol-2-yl]-amide]	6.97	–
0.26	Cc1cccc2nc(C(=O)Nc3nc4cc(-c5cc(C(F)(F)F)ccc5F)ccc4[nH]3)cn12 [Example 70, 5-Methyl-imidazo[1,2-a]pyridine-2-carboxylic acid [5-(2-fluoro-5-trifluoromethyl-phenyl)-1H-benzoimidazol-2-yl]-amide]	0.21	–
0.36	Cc1cccn2cc(C(=O)Nc3nc4cc(-c5cc(C(F)(F)F)ccc5F)ccc4[nH]3)nc12 [Example 71, 8-Methyl-imidazo[1,2-a]pyridine-2-carboxylic acid [5-(2-fluoro-5-trifluoromethyl-phenyl)-1H-benzoimidazol-2-yl]-amide]	1.56	–
0.62	CCOC(=O)c1cccc(-c2ccc3[nH]c(NC(=O)c4cn5c(C)cccc5n4)nc3c2)c1 [Example 72, 3-{2-[(5-Methyl-imidazo[1,2-a]pyridine-2-carbonyl)-amino]-1H-benzoimidazol-5-yl}-benzoic acid ethyl ester]	1.51	–
0.38	COc1ccc(-c2ccc3[nH]c(NC(=O)c4cn5c(C)cccc5n4)nc3c2)cc1C(F)(F)F [Example 76, 5-Methyl-imidazo[1,2-a]pyridine-2-carboxylic acid [5-(4-methoxy-3-trifluoromethyl-phenyl)-1H-benzoimidazol-2-yl]-amide]	0.89	–
0.61	Cc1cccc2nc(C(=O)Nc3nc4cc(-c5ccc(C(C)(C)C)cc5)ccc4[nH]3)cn12 [Example 77, 5-Methyl-imidazo[1,2-a]pyridine-2-carboxylic acid [5-(4-tert-butyl-phenyl)-1H-benzoimidazol-2-yl]-amide]	0.85	–
0.37	Cc1cccn2cc(C(=O)Nc3nc4cc(-c5ccc(C(C)(C)C)cc5)ccc4[nH]3)nc12 [Example 78, 8-Methyl-imidazo[1,2-a]pyridine-2-carboxylic acid [5-(4-tert-butyl-phenyl)-1H-benzoimidazol-2-yl]-amide]	0.98	–
1.82	CCOc1ccc(-c2ccc3[nH]c(NC(=O)c4cn5c(C)cccc5n4)nc3c2)cc1Cl [Example 79, 5-Methyl-imidazo[1,2-a]pyridine-2-carboxylic acid [5-(3-chloro-4-ethoxy-phenyl)-1H-benzoimidazol-2-yl]-amide]	–	1.54
0.81	CCOc1ccc(-c2ccc3[nH]c(NC(=O)c4cn5c(C)cccc5n4)nc3c2)cc1F [Example 80, 5-Methyl-imidazo[1,2-a]pyridine-2-carboxylic acid [5-(4-ethoxy-3-fluoro-phenyl)-1H-benzoimidazol-2-yl]-amide]	1.32	–
2.21	Cc1cccc2nc(C(=O)Nc3nc4cc(-c5cccc(C#N)c5)ccc4[nH]3)cn12 [Example 82, 5-Methyl-imidazo[1,2-a]pyridine-2-carboxylic acid [5-(3-cyano-phenyl)-1H-benzoimidazol-2-yl]-amide]	1.1	–
1.45	Cc1cccc2nc(C(=O)Nc3nc4cc(C5=CCCCC5)ccc4[nH]3)cn12 [Example 83, 5-Methyl-imidazo[1,2-a]pyridine-2-carboxylic acid (5-cyclohex-1-enyl-1H-benzoimidazol-2-yl)-amide]	4.17	–
1.21	Cc1cccn2cc(C(=O)Nc3nc4cc(-c5cccc(C#N)c5)ccc4[nH]3)nc12 [Example 84, 8-Methyl-imidazo[1,2-a]pyridine-2-carboxylic acid [5-(3-cyano-phenyl)-1H-benzoimidazol-2-yl]-amide]	2.9	–
0.22	Cc1cccc2nc(C(=O)Nc3nc4cc(-c5cc(Cl)ccc5Cl)ccc4[nH]3)cn12 [Example 87, 5-Methyl-imidazo[1,2-a]pyridine-2-carboxylic acid [5-(2,5-dichloro-phenyl)-1H-benzoimidazol-2-yl]-amide]	0.73	–
0.6	Cc1cccc2nc(C(=O)Nc3nc4cc(-c5ccc(C(F)(F)F)c(Cl)c5)ccc4[nH]3)cn12 [Example 92, 5-Methyl-imidazo[1,2-a]pyridine-2-carboxylic acid [5-(3-chloro-4-trifluoromethyl-phenyl)-1H-benzoimidazol-2-yl]-amide]	0.22	–
0.58	Cc1cccc2nc(C(=O)Nc3nc4cc(-c5ccc(OC(C)C)cc5)ccc4[nH]3)cn12 [Example 97, 5-Methyl-imidazo[1,2-a]pyridine-2-carboxylic acid [5-(4-isopropoxy-phenyl)-1H-benzoimidazol-2-yl]-amide]	1.78	–
0.27	Cc1cc(-c2ccc3[nH]c(NC(=O)c4cn5c(C)cccc5n4)nc3c2)ccc1Cl [Example 99, 5-Methyl-imidazo[1,2-a]pyridine-2-carboxylic acid [5-(4-chloro-3-methyl-phenyl)-1H-benzoimidazol-2-yl]-amide]	0.12	–
0.46	Cc1cccc2nc(C(=O)Nc3nc4cc(-c5ccc(O)c(C(F)(F)F)c5)ccc4[nH]3)cn12 [Example 100, 5-Methyl-imidazo[1,2-a]pyridine-2-carboxylic acid [5-(4-hydroxy-3-trifluoromethyl-phenyl)-1H-benzoimidazol-2-yl]-amide]	2.44	–
0.45	Cc1cccc2nc(C(=O)Nc3nc4cc(-c5ccsc5)ccc4[nH]3)cn12 [Example 102, 5-Methyl-imidazo[1,2-a]pyridine-2-carboxylic acid (5-thiophen-3-yl-1H-benzoimidazol-2-yl)-amide]	2.46	–
0.8	CCOc1ccc(-c2ccc3[nH]c(NC(=O)c4cn5c(C)cccc5n4)nc3c2)cc1Cl [Example 106, 5-Methyl-imidazo[1,2-a]pyridine-2-carboxylic acid [5-(3-chloro-4-ethoxy-phenyl)-1H-benzoimidazol-2-yl]-amide]	0.93	–
0.84	CCOc1ccc(-c2ccc3[nH]c(NC(=O)c4cn5c(C)cccc5n4)nc3c2)cc1C [Example 107, 5-Methyl-imidazo[1,2-a]pyridine-2-carboxylic acid [5-(4-ethoxy-3-methyl-phenyl)-1H-benzoimidazol-2-yl]-amide]	2.95	–
0.87	Cc1cccc2nc(C(=O)Nc3nc4cc(-c5cccc(C(F)(F)F)c5O)ccc4[nH]3)cn12 [Example 109, 5-Methyl-imidazo[1,2-a]pyridine-2-carboxylic acid [5-(2-hydroxy-3-trifluoromethyl-phenyl)-1H-benzoimidazol-2-yl]-amide]	4.85	–
